Assay results reported in ChEMBL document CHEMBL3769303, “Discovery of membrane active benzimidazole quinolones-based topoisomerase inhibitors as potential DNA-binding antimicrobial agents” (Eur J Med Chem, 2016).
Values after ≈ are worked out from the molar mass of the structure shown.

Legend:
Type in all cases: functional
Aspergillus flavus = assay: Antifungal activity against Aspergillus flavus ATCC 204304 after 24 hrs by micro broth dilution method; conditions: ATCC 204304, 24 h
Staphylococcus aureus [1] = assay: Antibacterial activity against Staphylococcus aureus ATCC 25923 by micro broth dilution method
[2] = Antibacterial activity against Bacillus proteus ATCC 13315 by micro broth dilution method
Saccharomyces cerevisiae = assay: Antifungal activity against Saccharomyces cerevisiae ATCC 9763 after 24 hrs by micro broth dilution method; conditions: ATCC 9763, 24 h
Micrococcus luteus = assay: Antibacterial activity against Micrococcus luteus ATCC 4698 by micro broth dilution method; conditions: NCTC 2665
Bacillus spizizenii = assay: Antibacterial activity against Bacillus subtilis ATCC 6633 by micro broth dilution method
Candida albicans = assay: Antifungal activity against Candida albicans ATCC 10231 after 24 hrs by micro broth dilution method; conditions: ATCC 10231, 24 h
Escherichia coli [3] = assay: Antibacterial activity against Escherichia coli DH52 by micro broth dilution method
Salmonella enterica = assay: Antibacterial activity against Salmonella enterica ATCC 14028 by micro broth dilution method
Staphylococcus aureus [4] = assay: Antibacterial activity against methicillin-resistant Staphylococcus aureus N315 by micro broth dilution method
Pseudomonas aeruginosa = assay: Antibacterial activity against Pseudomonas aeruginosa ATCC 27853 by micro broth dilution method
[5] = Antifungal activity against Candida mycoderma ATCC 9888 after 24 hrs by micro broth dilution method; conditions: Candida vini
Shigella dysenteriae = assay: Antibacterial activity against Shigella dysenteriae by micro broth dilution method
Escherichia coli [6] = assay: Antibacterial activity against Escherichia coli JM109 by micro broth dilution method
Cyberlindnera jadinii = assay: Antifungal activity against Candida utilis ATCC 9950 after 24 hrs by micro broth dilution method; conditions: Williopsis jadinii, ATCC 9950, 24 h

SMILES	MIC80 (Aspergillus flavus)	MIC (Staphylococcus aureus [1])	MIC [2]	MIC80 (Saccharomyces cerevisiae)	MIC (Micrococcus luteus)	MIC (Bacillus spizizenii)	MIC80 (Candida albicans)	MIC (Escherichia coli [3])	MIC (Salmonella enterica)	MIC (Staphylococcus aureus [4])	MIC (Pseudomonas aeruginosa)	MIC80 [5]	MIC (Shigella dysenteriae)	MIC (Escherichia coli [6])	MIC80 (Cyberlindnera jadinii)
CCCCCCCCn1c(CN2CCN(c3cc4c(cc3F)c(=O)c(C(=O)O)cn4CC)CC2)nc2ccccc21	0.5 µg/mL (≈ 0.89 µM)	32 µg/mL (≈ 57 µM)	4 µg/mL (≈ 7.12 µM)	4 µg/mL (≈ 7.12 µM)	4 µg/mL (≈ 7.12 µM)	32 µg/mL (≈ 57 µM)	8 µg/mL (≈ 14.2 µM)	8 µg/mL (≈ 14.2 µM)	4 µg/mL (≈ 7.12 µM)	2 µg/mL (≈ 3.56 µM)	2 µg/mL (≈ 3.56 µM)	2 µg/mL (≈ 3.56 µM)	16 µg/mL (≈ 28.5 µM)	32 µg/mL (≈ 57 µM)	2 µg/mL (≈ 3.56 µM)
O=C(O)c1cn(C2CC2)c2cc(N3CCN(Cc4nc5ccc([N+](=O)[O-])cc5[nH]4)CC3)c(F)cc2c1=O	4 µg/mL (≈ 7.9 µM)	16 µg/mL (≈ 31.6 µM)	4 µg/mL (≈ 7.9 µM)	4 µg/mL (≈ 7.9 µM)	8 µg/mL (≈ 15.8 µM)	8 µg/mL (≈ 15.8 µM)	2 µg/mL (≈ 3.95 µM)	4 µg/mL (≈ 7.9 µM)	4 µg/mL (≈ 7.9 µM)	2 µg/mL (≈ 3.95 µM)	0.5 µg/mL (≈ 0.987 µM)	8 µg/mL (≈ 15.8 µM)	4 µg/mL (≈ 7.9 µM)	8 µg/mL (≈ 15.8 µM)	4 µg/mL (≈ 7.9 µM)
CCCCCCCCCCCCn1c(CN2CCN(c3cc4c(cc3F)c(=O)c(C(=O)O)cn4CC)CC2)nc2ccccc21	64 µg/mL (≈ 104 µM)	128 µg/mL (≈ 207 µM)	256 µg/mL (≈ 414 µM)	256 µg/mL (≈ 414 µM)	256 µg/mL (≈ 414 µM)	128 µg/mL (≈ 207 µM)	128 µg/mL (≈ 207 µM)	256 µg/mL (≈ 414 µM)	256 µg/mL (≈ 414 µM)	256 µg/mL (≈ 414 µM)	256 µg/mL (≈ 414 µM)	128 µg/mL (≈ 207 µM)	256 µg/mL (≈ 414 µM)	512 µg/mL (≈ 829 µM)	64 µg/mL (≈ 104 µM)
O=C(O)c1cn(C2CC2)c2cc(N3CCN(Cc4nc5ccccc5n4Cc4ccccc4F)CC3)c(F)cc2c1=O	16 µg/mL (≈ 28.1 µM)	16 µg/mL (≈ 28.1 µM)	1 µg/mL (≈ 1.76 µM)	32 µg/mL (≈ 56.2 µM)	0.25 µg/mL (≈ 0.439 µM)	8 µg/mL (≈ 14 µM)	32 µg/mL (≈ 56.2 µM)	1 µg/mL (≈ 1.76 µM)	0.25 µg/mL (≈ 0.439 µM)	0.25 µg/mL (≈ 0.439 µM)	2 µg/mL (≈ 3.51 µM)	16 µg/mL (≈ 28.1 µM)	4 µg/mL (≈ 7.02 µM)	2 µg/mL (≈ 3.51 µM)	8 µg/mL (≈ 14 µM)
CCn1cc(C(=O)O)c(=O)c2cc(F)c(N3CCN(Cc4nc5ccccc5n4Cc4ccc(Cl)cc4Cl)CC3)cc21	1 µg/mL (≈ 1.64 µM)	4 µg/mL (≈ 6.57 µM)	1 µg/mL (≈ 1.64 µM)	2 µg/mL (≈ 3.29 µM)	0.25 µg/mL (≈ 0.411 µM)	8 µg/mL (≈ 13.1 µM)	0.5 µg/mL (≈ 0.822 µM)	1 µg/mL (≈ 1.64 µM)	0.25 µg/mL (≈ 0.411 µM)	0.125 µg/mL (≈ 0.205 µM)	1 µg/mL (≈ 1.64 µM)	1 µg/mL (≈ 1.64 µM)	2 µg/mL (≈ 3.29 µM)	4 µg/mL (≈ 6.57 µM)	0.5 µg/mL (≈ 0.822 µM)
CCn1cc(C(=O)O)c(=O)c2cc(F)c(N3CCN(Cc4nc5ccccc5n4Cc4ccc(F)cc4)CC3)cc21	16 µg/mL (≈ 28.7 µM)	8 µg/mL (≈ 14.3 µM)	32 µg/mL (≈ 57.4 µM)	8 µg/mL (≈ 14.3 µM)	8 µg/mL (≈ 14.3 µM)	8 µg/mL (≈ 14.3 µM)	8 µg/mL (≈ 14.3 µM)	32 µg/mL (≈ 57.4 µM)	8 µg/mL (≈ 14.3 µM)	16 µg/mL (≈ 28.7 µM)	8 µg/mL (≈ 14.3 µM)	32 µg/mL (≈ 57.4 µM)	16 µg/mL (≈ 28.7 µM)	32 µg/mL (≈ 57.4 µM)	8 µg/mL (≈ 14.3 µM)
